Measurements reported in publication PMC10609081, “In Vivo Trafficking of the Anticancer Drug Tris(8-Quinolinolato) Gallium (III) (KP46) by Gallium-68/67 PET/SPECT Imaging” (Molecules, 2023).

Assays:
[1] = Pilot study 1: oral [68Ga]KP46, mice kept anaesthetised for four hours, ex vivo biodistribution; format: in vivo; details: anaesthetised 0-4 h
Description: 67Ga citrate to 67Ga chloride conversion method
67Ga was provided as [67Ga]Ga-citrate, typically 418-430 MBq in 5.5 ml at the time of receipt (76-78 MBq/ml). The 67Ga-citrate solution was passed through a Sep-Pak plus light silica cartridge (part number WAT023537) at a flow rate of 1 ml/min to trap the 67Ga on the silica cartridge. The eluate was passed through again to capture more (total 80%) of the available radioactivity on the cartridge.
The cartridge was then washed twice with 5 ml of H2O to remove citric acid, then eluted with 600 µl of 0.1 M HCl in 50 µl fractions. Fractions with the highest activity (fraction 4, 5, and 6) were used for […]
Tumour xenograft development
500 Figure S11. Tumour growth profile of A375
400 human melanoma cells in female athymic nude mice (2.5 x 10^6 cells). Data are 300 reported as mean ± SD (n=24).
Developing a method for the oral administration of [68Ga]KP46
In the first pilot study, mice bearing a tumour xenograft (A375) were anaesthetised, orally administered with [68Ga]KP46 (10 MBq, 400 µl) and PET scanned (no CT scan was performed) for four hours (n = 1), or orally administered with [68Ga]KP46 (1–2 MBq, 400 µl) and kept anaesthetised for four hours (n = 3), before being culled for organ harvesting and gamma counting. […]
radioactivity was in the stomach, with minimal uptake in the small intestine. […]

[2] = Distribution/partition coefficients (logD, logP), shake flask with gamma counting; format: physicochemical; details: tracer level, mean ± SD
Description: Tracer-level [^68Ga]KP46 and [^68Ga]Ga-acetate solutions (5–20 µL, 0.3–0.5 MBq) were added to a pre-equilibrated mixture (500 µL/500 µL) of octanol/water (for logP measurement) or octanol/PBS (for logD7.4 measurement). Samples were vortexed for two minutes in a Multi Vortex Mixer V-32 (Grant Bio). From each layer, a sample of 200 µL was taken and its radioactivity measured using a gamma counter.

[3] = Octanol extraction of serum, urine and gut contents after oral radiolabelled KP46 (speciation); format: in vivo, mice; details: 4 h
Description: Serum and urine from the “tracer level” group (E) were subjected to octanol extraction 24 h postadministration to determine the fraction of ^67Ga that may have survived in the form of [^67Ga]KP46 after absorption from the gut.
Oral [^68/67Ga]KP46: The protocol for oral administration experiments reported here was devised on the basis of pilot experiments described in Supplementary Materials (Figure S12). For short-term (up to 4 h) studies with ^68Ga, awake (nonanaesthetised, to avoid suppressive effects of anaesthesia on digestive tract activity) mice that had been fasted for up to 14 h were given [^68Ga]KP46 (5–13 MBq) (group C, “tracer”, n = 3) or [^68Ga]KP46 and KP46 (5–8.5 MBq) (group D, “bulk”, n = 3) by oral gavage. The dose given orally to group D animals, prepared as described above, was 0.4 μmol in 400 μL, molar activity ca. 25 MBq/μmol. The mice were fasted for three hours before being anaesthetised and PET/CT scanned dynamically for one hour (see below for scanning protocol). After scanning, mice in both groups were culled by neck dislocation while still anaesthetised four hours post-oral administration for organ harvesting and gamma counting. Samples of blood, urine and contents of stomach, small intestine and large intestine (the organs/tissue with measurable activity; tumours were not included as they were insufficiently radioactive) from the mice in group C were used for octanol extraction (shake-flask method) to separate water-soluble (released) and lipid-soluble (intact KP46) ^68Ga. Serum samples were prepared by placing blood samples in a serum separator tube (brand VS367954, Fisher Scientific Ltd., Loughborough, UK) and centrifuging at 3000 rpm for 10 min. Serum (200–300 µL) and urine samples (150–180 µL, taken from the excised bladders) were directly added to Eppendorf tubes containing a pre-equilibrated mixture of octanol (500 µL) and water (500 µL). The tubes were vortexed for two minutes on a Multi Vortex Mixer V-32 (Grant Bio). After separation of layers, a sample of 400 µL from each layer was transferred to fresh Eppendorf tubes and analysed with a gamma counter. Stomach content (72–77 mg), small intestine content (35–88 mg), and large intestine content (86–100 mg) samples from each mouse were analysed similarly by adding them directly to Eppendorf tubes containing a pre-equilibrated mixture of octanol (500 µL) and water (500 µL) before vortexing and centrifuging at 10,000 rpm for 10 min at 4 °C. From each layer, 430 µL was transferred to fresh Eppendorf tubes and analysed with a gamma counter; the solid residues were also counted. Tissues from mice in group D were used after radioactive decay for measurements of nonradioactive ^69Ga content.

[4] = after removal of solids, octanol extraction, group C
[5] = not extracted into octanol or water, oral tracer (group C)
[6] = octanol extraction, oral tracer (group C)

[68Ga+3].[O-]c1cccc2cccnc12.[O-]c1cccc2cccnc12.[O-]c1cccc2cccnc12 [[^68Ga]KP46]
activity in tumour, ex vivo [1]: 0.6 ± 0.3 %ID/g | logD(octanol/PBS) ([2]; octanol/PBS): 1.90 ± 0.19 | logP(octanol/water) ([2]; octanol/water): 2.33 ± 0.28 | soluble radioactivity in aqueous phase, large intestine [3, 4]: 95.5% ± 4.2% | soluble radioactivity in aqueous phase, small intestine [3, 4]: 95% ± 2.5% | soluble radioactivity in aqueous phase, stomach [3, 4]: 76.8% ± 8.7% | activity present in solids, large intestine contents [3, 5]: 83.7% ± 8.8% | activity present in solids, small intestine contents [3, 5]: 80.7% ± 19.4% | activity present in solids, stomach contents [3, 5]: 82.9% ± 10.7% | 68Ga in aqueous phase, serum [3, 6]: 98.6% ± 1.5% | 68Ga in aqueous phase, urine [3, 6]: 98.2% ± 1.7%
